What was measured:
[1] = tested on: Chinese hamster ovary (CHO) cells; assay: In vitro transfection of CHO cells with pEGFP-C1 plasmid and DOTAP liposomes plus disaccharides, GFP by flow cytometer; assay type: cell-based; conditions: DOTAP liposomes, appropriate amount of disaccharide
Excerpt: FIG. 2 present the effects of disaccharides on the transgene expression of cultured Chinese hamster ovary (CHO) cells subjected to an in vitro transfection of DNA with a transfection reagent containing DOTAP and various disaccharides. The x-axis in FIG. 2 refers to the disaccharide concentration in the transfection reagent, and the y-axis in FIG. 2 represents the GFP (green fluorescent protein)-positive percentage of the transfected CHO cells measured by a flow cytometer. The GFP-positive percentage of the CHO cells is used as an indicator of transfection efficiency. In the experiments shown in FIG. 2, various concentrations of cellobiose, lactose, sucrose, trehalose and maltose are respectively incorporated into a transfection reagent containing pEGFP-C1 plasmid and DOTAP liposomes, and in vitro transfections are performed with the transfection reagents containing different disaccharides. The GFP-positive percentage of CHO cells is then detected for each transfection reagent sample. […] In other words, the incorporation of a disaccharide into the transfection reagent affects the transfection efficiency. Moreover, the changes in transfection efficiency are related to the type and the concentration of the disaccharide in the transfection reagent. […] More particularly, the transfection efficiency increases from 28% to more than 40% at 180 mM of lactose, sucrose or trehalose in a transfection reagent. The transfection efficiency is doubled when 120 mM of cellobiose is incorporated into a transfection reagent.

[2] = tested on: Chinese hamster ovary (CHO) cells; assay: In vitro transfection of CHO cells with different lipid-based vectors plus disaccharides, GFP-positive percentage; assay type: cell-based; conditions: 120 mM disaccharide; DOTAP, DOTAP/Chol, DOTAP/DOPE, DC-Chol/DOPE or LPD vector
Excerpt: FIGS. 3A and 3B present the effects of disaccharides on the transgene expression of cultured Chinese hamster ovary (CHO) cells subjected to an in vitro transfection of DNA with a transfection reagent containing different lipid-based vectors plus different disaccharides. The x-axis in FIGS. 3A and 3B represents the lipid composition, and the y-axis represents the GFP-positive percentage of the transfected CHO cells, which is used as an indicator for transfection efficiency. In the experiments shown in FIGS. 3A and 3B, DOTAP, DOTAP/Chol, DOTAP/DOPE, DC-Chol/DOPE or LPD applied as a vector is incorporated into a pEGFP-C1 plasmid-containing transfection reagent. Thereafter, 120 mM of various disaccharides is incorporated into the transfection reagent, and in vitro cell transfection is performed followed by detecting the cell percentage of GFP expression.

[3] = tested on: lung tissues; assay: In vivo transfection by tail vein injection of gWiz-luciferase plasmid with lipid-based vectors plus disaccharides, luciferase activity in lung; design: species or system mouse; conditions: for luminescent intensity in the lung tissue (RLU per mg of lung tissue protein): DOTAP liposomes, i.v. tail vein, 24 hour
Protocol: FIG. 4A presents the effects of disaccharides on the transgene expression after intravenous injection of DOTAP-based vectors with various disaccharides by way of mouse tail vein. Various concentrations of […] and […] are respectively incorporated into the transfection reagent containing the gWiz-luciferase plasmid and DOTAP liposomes. The transfection reagent is administered via intravenous injection through the tail vein of a 4-6 weeks old ICR (CD-1) […]. The […] is sacrificed 24 hour after the intravenous injection, and the activity of luciferase in the lung tissues of the […] is observed. The x-axis in FIG. 4A represents the disaccharide concentration in the tranfection reagent, and the y-axis in FIG. 4 represents the luminescent intensity, measured by a luminometer and expressed as relative light unit (RLU) per mg of lung tissue protein. The luminescent intensity is used as an indicator of transfection efficiency. […] Accordingly, cellobiose and trehalose can improve the efficiency of cell transfection in vivo, and the transfection efficiency increases as the concentration of the disaccharide increases. FIG. 4B presents the effects of disaccharides on the transgene expression after intravenous injection of different lipid-based vectors with various disaccharides by way of mouse tail vein. DOTAP, DOTAP/chol and LPD are respectively added as a vector into the tranfection reagent containing gWiz-luciferase plasmid. A concentration of 330 mM cellobiose or trehalsoe is incorporated into the transfection reagent. The transfection reagent is then intravenously injected into the animal for cell transfection. The x-axis in FIG. 4B represents the type of the lipid-based vector, and the y-axis in FIG. 4B represents the luminescent intensity, measured by a luminometer and expressed as relative light unit (RLU) per mg of lung tissue protein.

[4] = tested on: MDA-MB-231; assay: DNA-PEI transfection with trehalose, GFP expression percentage, MDA-MB-231; assay type: cell-based; conditions: 20 mM trehalose, MDA-MD-231
Excerpt: FIG. 6 presents the effects of disaccharides on the transfection efficiency of in vitro cultured CHO cells that are transfected with transfection reagents containing PEI and different disaccharides. The x-axis in FIG. 6 represents the concentrations of different disaccharide in the transfection reagent, and the y-axis represents the GFP expression percentage of the transfected CHO cells detected by a flow cytometer. The GFP expression percentage of the transfected CHO cells is used as an indicator of transfection efficiency. […] The effect of disaccharides in the transfection reagent on transfection efficiency is then analyzed. […] In other words, the cell transfection efficiency is enhanced.
FIGS. 7A and & 7B show the optimal trehalose concentrations for enhancing the transfection expression mediated by DNA-PEI complexes in different cell lines. The x-axis in FIGS. 7A and 7B […] represents the concentrations of trehalose in the transfection reagent, and the y-axis represents the GFP expression percentage of the cells as an indicator of transfection efficiency The transfection procedures in these experiments of different cell lines are identical to those described previously for CHO cells in experiment 5. […] Moreover, the extents of enhancement on the transfection efficiency depend on the cell lines. […]

**Q.** `OC[C@H]1O[C@H](O[C@H]2O[C@H](CO)[C@@H](O)[C@H](O)[C@H]2O)[C@H](O)[C@@H](O)[C@@H]1O` [trehalose] was tested. Which “effect on transfection efficiency” value [1] did it give?
**A.** Its value is “increases significantly”.

**Q.** And the “effect on transfection efficiency (GFP-positive percentage)” value [2]?
**A.** The value was “significantly enhances the transfection efficiency”.

**Q.** And the “effect on transfection efficiency (luminescent intensity, lung)” value ([3]; 330 mM disaccharide, DOTAP, DOTAP/Chol or LPD vector, i.v.)?
**A.** The value was “significant increase in transfection efficiency”.

**Q.** What about the “luminescent intensity in the lung tissue (RLU per mg of lung tissue protein)” value ([3]; 180 mM disaccharide) of the same molecule?
**A.** The value was “increase the luminescent intensity significantly”.

**Q.** And the “luminescent intensity in the lung tissue (RLU per mg of lung tissue protein)” value ([3]; 330 mM disaccharide)?
**A.** The value was “increases noticeably”.

**Q.** What about the “enhancement of percentage of GFP positive cells” value [4] of the same molecule?
**A.** The value was “about 50%”.

From US20090175905A1, “TRANSFECTION REAGENT AND METHOD FOR ENHANCING TRANSFECTION EFFICIENCY” (National Taiwan University of Science and Technology, priority 2008, published 2009)
